Experimental data reported in PubChem BioAssay (NCI).
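Dose response: 5 concentrations. Exposure: 48 h. Format: 96-well plates. Endpoint: linear interpolation; highest concentration if not reached. TGI marks complete inhibition of growth.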 Where a SMILES comes first, the peptide text is derived from it. The star is where a group is joined. Boc = CC(C)(C)OC(=O)*; OBn = c1ccc(CO*)cc1

How the values were obtained:
Test in all cases: NCI-60 cell line screen, 48 h
UACC-257 melanoma = system: UACC-257 melanoma
OVCAR-4 ovarian = system: OVCAR-4 ovarian
KM12 colon = system: KM12 colon
NCI-H460 lung = system: NCI-H460 lung
SF-295 CNS = system: SF-295 CNS
HCC-2998 colon = system: HCC-2998 colon
NCI-H23 lung = system: NCI-H23 lung
SF-539 CNS = system: SF-539 CNS
SK-MEL-5 melanoma = system: SK-MEL-5 melanoma
MCF7 breast = system: MCF7 breast
OVCAR-8 ovarian = system: OVCAR-8 ovarian
MDA-MB-435 = system: MDA-MB-435
SNB-75 CNS = system: SNB-75 CNS
SNB-19 CNS = system: SNB-19 CNS
HOP-62 NSCLC = system: HOP-62 NSCLC
LOX IMVI melanoma = system: LOX IMVI melanoma
M14 melanoma = system: M14 melanoma
T-47D breast = system: T-47D breast
NCI/ADR-RES ovarian = system: NCI/ADR-RES ovarian
IGROV1 ovarian = system: IGROV1 ovarian
SK-OV-3 ovarian = system: SK-OV-3 ovarian
MDA-N = system: MDA-N
NCI-H226 lung = system: NCI-H226 lung
HCT-15 colon = system: HCT-15 colon
OVCAR-3 ovarian = system: OVCAR-3 ovarian
MOLT-4 leukemia = system: MOLT-4 leukemia
U251 CNS = system: U251 CNS
CAKI-1 renal = system: CAKI-1 renal
SK-MEL-2 melanoma = system: SK-MEL-2 melanoma
COLO 205 colon = system: COLO 205 colon
UO-31 renal = system: UO-31 renal
HL-60(TB) leukemia = system: HL-60(TB) leukemia
ACHN renal = system: ACHN renal
786-0 renal = system: 786-0 renal
DU-145 prostate = system: DU-145 prostate
HCT-116 colon = system: HCT-116 colon
TK-10 renal = system: TK-10 renal
HOP-92 NSCLC = system: HOP-92 NSCLC
OVCAR-5 ovarian = system: OVCAR-5 ovarian
MDA-MB-231 breast = system: MDA-MB-231 breast
SK-MEL-28 melanoma = system: SK-MEL-28 melanoma
A549 NSCLC = system: A549 NSCLC
SN12C renal = system: SN12C renal
HT29 colon = system: HT29 colon
EKVX NSCLC = system: EKVX NSCLC
SW-620 colon = system: SW-620 colon
PC-3 prostate = system: PC-3 prostate
RPMI-8226 leukemia = system: RPMI-8226 leukemia
CCRF-CEM leukemia = system: CCRF-CEM leukemia
UACC-62 melanoma = system: UACC-62 melanoma
MALME-3M melanoma = system: MALME-3M melanoma
A498 renal = system: A498 renal
K-562 leukemia = system: K-562 leukemia
NCI-H522 lung = system: NCI-H522 lung
SR leukemia = system: SR leukemia
SF-268 CNS = system: SF-268 CNS

Oc1[nH]c2ccccc2c1N=Nc1nc(-c2ccc(Cl)c(Cl)c2)cs1
TGI (UACC-257 melanoma): > 100 µM | TGI (OVCAR-4 ovarian): > 100 µM | TGI (KM12 colon): > 100 µM | TGI (NCI-H460 lung): > 100 µM | TGI (SF-295 CNS): > 100 µM | TGI (HCC-2998 colon): > 100 µM | TGI (NCI-H23 lung): > 100 µM | TGI (SF-539 CNS): > 100 µM | TGI (SK-MEL-5 melanoma): > 100 µM | TGI (MCF7 breast): > 100 µM | TGI (OVCAR-8 ovarian): > 100 µM | TGI (MDA-MB-435): > 100 µM | TGI (SNB-75 CNS): > 100 µM | TGI (SNB-19 CNS): > 100 µM | TGI (HOP-62 NSCLC): > 100 µM | TGI (LOX IMVI melanoma): > 100 µM | TGI (M14 melanoma): > 100 µM | TGI (T-47D breast): > 100 µM | TGI (NCI/ADR-RES ovarian): > 100 µM | TGI (IGROV1 ovarian): > 100 µM | TGI (SK-OV-3 ovarian): > 100 µM | TGI (MDA-N): > 100 µM | TGI (NCI-H226 lung): > 100 µM | TGI (HCT-15 colon): > 100 µM | TGI (OVCAR-3 ovarian): > 100 µM | TGI (MOLT-4 leukemia): > 100 µM | TGI (U251 CNS): > 100 µM | TGI (CAKI-1 renal): > 100 µM | TGI (SK-MEL-2 melanoma): > 100 µM | TGI (COLO 205 colon): > 100 µM | TGI (UO-31 renal): > 100 µM | TGI (HL-60(TB) leukemia): 0.718 µM | TGI (ACHN renal): > 100 µM | TGI (786-0 renal): > 100 µM | TGI (DU-145 prostate): > 100 µM | TGI (HCT-116 colon): > 100 µM | TGI (TK-10 renal): > 100 µM | TGI (HOP-92 NSCLC): > 100 µM | TGI (OVCAR-5 ovarian): > 100 µM | TGI (MDA-MB-231 breast): > 100 µM | TGI (SK-MEL-28 melanoma): > 100 µM | TGI (A549 NSCLC): > 100 µM | TGI (SN12C renal): > 100 µM | TGI (HT29 colon): > 100 µM | TGI (EKVX NSCLC): > 100 µM | TGI (SW-620 colon): > 100 µM | TGI (PC-3 prostate): > 100 µM

CC(NC(=O)C(NC(=O)OC(C)(C)C)C(C)C)C(=O)N1CCCC1C(=O)NCC(=O)NC(C(=O)NCC(=O)OCc1ccccc1)C(C)C (stereo not drawn) (Boc-VAPGVG-OBn; configuration not given here)
TGI (UACC-257 melanoma): > 100 µM | TGI (RPMI-8226 leukemia): > 100 µM | TGI (OVCAR-4 ovarian): > 100 µM | TGI (NCI-H460 lung): > 100 µM | TGI (SF-295 CNS): > 100 µM | TGI (HCC-2998 colon): > 100 µM | TGI (NCI-H23 lung): > 100 µM | TGI (SF-539 CNS): > 100 µM | TGI (MCF7 breast): > 100 µM | TGI (OVCAR-8 ovarian): > 100 µM | TGI (MDA-MB-435): > 100 µM | TGI (SNB-75 CNS): > 100 µM | TGI (SNB-19 CNS): > 100 µM | TGI (HOP-62 NSCLC): > 100 µM | TGI (LOX IMVI melanoma): > 100 µM | TGI (CCRF-CEM leukemia): > 100 µM | TGI (UACC-62 melanoma): > 100 µM | TGI (M14 melanoma): > 100 µM | TGI (MALME-3M melanoma): > 100 µM | TGI (T-47D breast): > 100 µM | TGI (NCI/ADR-RES ovarian): > 100 µM | TGI (IGROV1 ovarian): > 100 µM | TGI (SK-OV-3 ovarian): > 100 µM | TGI (MDA-N): > 100 µM | TGI (HCT-15 colon): > 100 µM | TGI (OVCAR-3 ovarian): > 100 µM | TGI (U251 CNS): > 100 µM | TGI (A498 renal): > 100 µM | TGI (CAKI-1 renal): > 100 µM | TGI (SK-MEL-2 melanoma): > 100 µM | TGI (COLO 205 colon): > 100 µM | TGI (K-562 leukemia): > 100 µM | TGI (UO-31 renal): > 100 µM | TGI (HL-60(TB) leukemia): > 100 µM | TGI (ACHN renal): > 100 µM | TGI (786-0 renal): > 100 µM | TGI (DU-145 prostate): > 100 µM | TGI (HCT-116 colon): > 100 µM | TGI (NCI-H522 lung): > 100 µM | TGI (TK-10 renal): > 100 µM | TGI (SR leukemia): > 100 µM | TGI (HOP-92 NSCLC): > 100 µM | TGI (OVCAR-5 ovarian): > 100 µM | TGI (MDA-MB-231 breast): > 100 µM | TGI (SK-MEL-28 melanoma): > 100 µM | TGI (SN12C renal): > 100 µM | TGI (HT29 colon): > 100 µM | TGI (EKVX NSCLC): > 100 µM | TGI (SF-268 CNS): > 100 µM | TGI (SW-620 colon): > 100 µM | TGI (PC-3 prostate): > 100 µM
